{"source": "patent EP0706514B1", "about": "“COMPOUNDS AND METHODS FOR INHIBITION OF HIV AND RELATED VIRUSES” (MEDIVIR AB, priority 1993, dated 1995)", "key": {"HIV virus": {"tested_on": "HIV virus", "assay": "Test A (XTT): reduction of virus-induced cytotoxicity in MT4 cells", "format": "cell-based", "conditions": "for % inhibition: Test A", "method": "Tests A, B, C, and D (XTT)\nMT4 cells in a medium of RPMI 1640, 5% FCS, penicillin/streptomycin are adjusted to 2x10^5 cells/ml and seeded into microplates (96 wells/plate) […] cell suspension/well giving 2x10^4 cells/well. The compound to be tested is made into a 10 mg/ml mixture in DMSO and stored at -20°C. […] Further dilutions to […] are made in medium containing microplates. Fifty […] of the 400, 40, and 4 mg/ml are transferred to the cell-containing microplates with a multi-channel pipette (final concentration: […]). Finally, […] of virus suspension is added to each well (with a repetitive \"Eppendorf\" multipipett). […] The plate is put into a plastic bag and incubated for six days in CO2 atmosphere. To each well in the plate is added […] of XTT ((2,3-bis[2-methoxy-4-nitro-5-sulfophenyl]-5-[(phenylamin o)carbonyl]-2H-tetrazolium hydroxide), (1 mg/ml 0.01-0.02 mM N-metyl-phenazonium methosulfate). After six hours of incubation in CO2 atmosphere the plates are covered with adhesive plate sealers and gently mixed on a vortex. Optical densities are determined at a wavelength of 450 nm and a reference wavelength of 650 nm. The percent reduction of cytotoxocity caused by the virus infection is calculated as follows: (OD450 compound - OD450 inf cells)/(OD450 uninf cells - OD450 inf cells)x 100 [formula]"}, "recombinant HIV-RT": {"biological_target": "T1, recombinant HIV-RT (Human immunodeficiency virus type 1 group M subtype B, UniProt P04585)", "T1 construct": "recombinant HIV-RT (diluted in virus disruption buffer to give 200.000 cpm)", "assay": "biochemical", "method": "100 mM Tris-HCl pH 7.6, 100 mM KCl, 4 mM MgCl2, 4 mM DTT, 275 mg/ml BSA, 0.5 mg (rA)n(dT)12-18 and 0.3 mM ^3H-=dTTP (specific activity 18.000 cpm/mol). After 60 minutess of incubation 40 ml in duplicate were spotted on paper discs and washed in 5% TCA. After rinsing the paper discs in ethanol they were dried and counted in scintillation fluid."}, "[1]": {"conditions": "Human immunodeficiency virus 1, MT4"}, "[2]": {"conditions": "Human immunodeficiency virus 1, MT4, Test A, MT4 cells, 0.1 µg/ml, read-out: % inhibition"}, "[3]": {"conditions": "Human immunodeficiency virus 1, MT4, Test A, MT4 cells, 1 µg/ml"}, "[4]": {"conditions": "Human immunodeficiency virus 1, MT4, Test A, MT4 cells, 100 µg/ml, read-out: % inhibition"}, "[5]": {"conditions": "IC50, Test I, several values in a cell are repeat determinations"}, "[6]": {"conditions": "Test I, several values in a cell are repeat determinations, read-out: IC50 (converted)"}}, "note": "pIC50: −log10 of the molar value. Several values for one entry are separate records, joined by “and”; a condition that tells them apart may be missing. Identical values can stand only once. Like-named read-outs stand apart in the source and are kept apart here."}
{"smiles": "O=C(Nc1ccc(Cl)cn1)N[C@H]1C[C@H]1c1c(F)cccc1F", "values": [{"measurement": "inhibition at 0.1 µg/mL", "setting": "HIV virus; [1]", "result": 100, "unit": "%"}, {"measurement": "inhibition at 10 µg/mL", "setting": "HIV virus; [1]", "result": 100, "unit": "%"}, {"measurement": "inhibition at 100 µg/mL", "setting": "HIV virus; [1]", "result": 100, "unit": "%"}, {"measurement": "inhibition at 0.001 µg/mL", "setting": "HIV virus; Human immunodeficiency virus 1, MT4, Test A, MT4 cells, 0.001 µg/ml", "result": 7, "unit": "%"}, {"measurement": "inhibition at 0.01 µg/mL", "setting": "HIV virus; Human immunodeficiency virus 1, MT4, Test A, MT4 cells, 0.01 µg/ml", "result": 80, "unit": "%"}, {"measurement": "inhibition at 0.1 µg/mL", "setting": "HIV virus; [2]", "result": 82, "unit": "%"}, {"measurement": "inhibition at 1 µg/mL", "setting": "HIV virus; [3]", "result": 86, "unit": "%"}, {"measurement": "inhibition at 100 µg/mL", "setting": "HIV virus; [4]", "result": 3, "unit": "%"}, {"measurement": "% inhibition", "setting": "HIV virus; MT4 cells, 0.001 µg/ml", "result": 8, "unit": "%"}, {"measurement": "% inhibition", "setting": "HIV virus; MT4 cells, 0.01 µg/ml", "result": 81, "unit": "%"}, {"measurement": "% inhibition", "setting": "HIV virus; MT4 cells, 1 µg/ml", "result": 90, "unit": "%"}, {"measurement": "pIC50", "setting": "recombinant HIV-RT; IC50, Test I", "result": "8.61 and 8.81"}, {"measurement": "% inhibition", "setting": "recombinant HIV-RT; Test I, 0.001 µg/ml", "result": 62, "unit": "%"}, {"measurement": "inhibition at 0.001 µg/mL", "setting": "recombinant HIV-RT; Test I, 0.001 µg/ml", "result": 55, "unit": "%"}, {"measurement": "% inhibition", "setting": "recombinant HIV-RT; Test I, 0.01 µg/ml", "result": 93, "unit": "%"}, {"measurement": "inhibition at 0.01 µg/mL", "setting": "recombinant HIV-RT; Test I, 0.01 µg/ml", "result": 89, "unit": "%"}, {"measurement": "inhibition at 0.1 µg/mL", "setting": "recombinant HIV-RT; Test I, 0.1 µg/ml (column 4)", "result": 98, "unit": "%"}, {"measurement": "inhibition at 1 µg/mL", "setting": "recombinant HIV-RT; Test I, 1 µg/ml", "result": 100, "unit": "%"}]}
{"smiles": "CCOc1ccc(F)c(CCNC(=O)Nc2ccc(Br)cn2)c1Cl", "values": [{"measurement": "pIC50", "setting": "recombinant HIV-RT; IC50, Test I", "result": "8.32 and 8.47"}, {"measurement": "% inhibition", "setting": "recombinant HIV-RT; Test I, 0.001 µg/ml", "result": 45, "unit": "%"}, {"measurement": "inhibition at 0.001 µg/mL", "setting": "recombinant HIV-RT; Test I, 0.001 µg/ml", "result": 41, "unit": "%"}]}
{"smiles": "O=C(NCCc1c(F)cccc1F)Nc1ccc(Cl)cn1", "values": [{"measurement": "inhibition at 0.1 µg/mL", "setting": "HIV virus; [2]", "result": 92, "unit": "%"}, {"measurement": "inhibition at 1 µg/mL", "setting": "HIV virus; [3]", "result": 87, "unit": "%"}, {"measurement": "inhibition at 10 µg/mL", "setting": "HIV virus; Human immunodeficiency virus 1, MT4, Test A, MT4 cells, 10 µg/ml, read-out: % inhibition", "result": 93, "unit": "%"}, {"measurement": "inhibition at 100 µg/mL", "setting": "HIV virus; [4]", "result": 0, "unit": "%"}, {"measurement": "% inhibition", "setting": "HIV virus; MT4 cells, 0.001 µg/ml", "result": 6, "unit": "%"}, {"measurement": "% inhibition", "setting": "HIV virus; MT4 cells, 0.01 µg/ml", "result": "51% and 94%"}, {"measurement": "% inhibition", "setting": "HIV virus; MT4 cells, 1 µg/ml", "result": 98, "unit": "%"}]}
{"smiles": "N#Cc1ccc(NC(=O)N[C@@H]2C[C@@H]2c2c(F)cccc2F)nc1", "note": "(racemic) [Example 26, (+,-)-N-(cis-2-(2,6-Difluorophenyl)-cyclopropyl)-N'-(5-cyanopyrid-2-yl)-urea]", "values": [{"measurement": "pIC50", "setting": "recombinant HIV-RT; [5]", "result": "7.54 and 7.50"}]}
{"smiles": "COCOc1c(C(C)=O)ccc(F)c1[C@H]1C[C@H]1NC(=O)Nc1ccc(Cl)cn1", "note": "(racemic) [Example 56, (+,-)-N-(cis-2-(5-Acetyl-2-fluoro-6-methoxymethoxyphenyl)cyclopropyl)-N'-(5-chloropyrid-2-yl)-urea]", "values": [{"measurement": "pIC50", "setting": "recombinant HIV-RT; [5]", "result": "8.25 and 8.27"}]}
{"smiles": "CC(=O)c1ccc(F)c([C@H]2C[C@H]2NC(=O)Nc2ccc(Cl)cn2)c1O", "note": "(racemic) [Example 57, (+,-)-N-(cis-2-(5-Acetyl-2-fluoro-6-hydroxyphenyl)cyclopropyl)-N'-(5-chloropyrid-2-yl)-urea]", "values": [{"measurement": "IC50", "setting": "recombinant HIV-RT; [5]", "result": "1.1 nM (2×) and 1.37 nM"}]}
{"smiles": "O=C(Nc1ccc(Cl)cn1)N[C@@H]1C[C@@H]1c1c(F)ccc(O)c1Cl", "note": "(racemic) [Example 64, (+, -)-N-(cis-2-(2-chloro-3-hydroxy-6-fluorophenyl)cyclopropyl)-N'-(5-chloropyrid-2-yl)-urea]", "values": [{"measurement": "pIC50", "setting": "recombinant HIV-RT; [5]", "result": 8.44}]}
{"smiles": "N#Cc1ccc(NC(=O)N[C@@H]2C[C@@H]2c2c(F)cccc2Cl)nc1", "note": "(relative stereo) [Example 33, N-(cis-2-(2-chloro-6-fluorophenyl)cyclopropyl)-N'-(5-cyanopyrid-2-yl)-urea]", "values": [{"measurement": "pIC50", "setting": "recombinant HIV-RT; [5]", "result": 8.82}]}
{"smiles": "O=C(Nc1ccc(Cl)cn1)N[C@@H]1C[C@@H]1c1c(F)cccc1Cl", "note": "(relative stereo) [Example 34, N-(cis-2-(2-chloro-6-fluorophenyl)-cyclopropyl) -N'-(5-chloropyrid-2-yl)-urea]", "values": [{"measurement": "pIC50", "setting": "recombinant HIV-RT; [5]", "result": 8.93}]}
{"smiles": "O=C(Nc1ccc(Br)cn1)NC1CC1c1c(F)cccc1F", "note": "[Example 27, (1R,2S)-N-(cis-2-(2,6-Difluorophenyl)-cyclopropyl)-N'-5-bromopyrid-2-yl)-urea]", "values": [{"measurement": "IC50", "setting": "recombinant HIV-RT; [6]", "result": "1.36 nM and 1.63 nM"}]}
{"smiles": "CC(=O)c1ccc(F)c(CCNC(=O)Nc2ccc(Cl)cn2)c1O", "note": "[Example 58]", "values": [{"measurement": "IC50", "setting": "recombinant HIV-RT; [6]", "result": 108, "unit": "nM"}]}
